Reference: patent US20110206612A1, “NOVEL SCREENS TO IDENTIFY AGENTS THAT MODULATE RETINAL BLOOD VESSEL FUNCTION AND PERICYTE FUNCTION AND DIAGNOSTIC AND THERAPEUTIC APPLICATION THEREFOR” (UNIVERSITY OF TECHNOLOGY, SYDNEY, priority 2002, published 2011)
Like-named read-outs stand apart in the source and are kept apart here.

How the values were obtained:
[1] = system: pericytes stimulated by PACAP; assay: inhibition of PACAP-induced relaxation of pericytes on silicone substrate; type: cell-based
Procedure: The contractile state of the pericyte was quantified by counting the number of wrinkles (N) and the length of each wrinkle (l) in the thin shin sheet of silicone. From these observations an index of contractility (Ci) was developed from […]. An experiment to determine the effect of vasoactive agents was conducted by first quantifying Ci with the pericyte in physiological buffer (“control”). The Ci was quantified after exposing the pericytes to a vasoactive agent and allowing the pericyte to reach a steady-state level of contractility, which usually took 10 minutes. The effect of the vasoactive agent was determined by dividing by the Ci in the control condition and multiplying by 100 to obtain an index of effect (Ie,%) that was either less than 100 (pericyte relaxed relative to control) or greater than 100 (pericyte contracted relative to control). As a further control, incubations with buffer alone for the complete duration of exposure to each vasoactive agent were performed in conjunction with each experiment.
The present inventors further identified protein kinase A (PKA) as being affected by the increase in cAMP following the binding of PACAP or VIP. For this purpose cells were grown on silicone substrate and contacted by a 10^−8 M concentration of PACAP.
The present inventors have also shown that the relaxing effect of PACAP on pericyte contraction was in part mediated by the intracellular pathway that mobilises Ca^2+ from intracellular stores.

retinal pericytes = assay: cells; conditions: for effect on contractile state of retinal pericytes (in words): pericytes on silicone substrate, 10 minutes per concentration
Procedure: A small volume of dimethylpolysiloxane (Sigma Chemical Co.) of either 60,000 cps (DMPS-60M) or 12,500 cps (DMPS-12M) viscosity was applied to 12 mm diameter glass cover slips. In some cases an intermediate viscosity dimethylpolysiloxane (30,000 cps) was prepared by blending 54% by weight of 60,000 cps dimethylpolysiloxane with 46% by weight of 12,500 cps dimethylpolysiloxane. The coated cover-slip was heated for 2 seconds using a Bunsen burner to induce cross-linking of the surface of the dimethylpolysiloxane and formation of a thin silicone rubber sheet bonded to the cover slip. After preparation, the cover slips were placed in 24-well tissue culture dishes and sterilised by UV irradiation overnight.
Pericytes from primary cultures (first passage) were plated on the cover slips in DMEM supplemented with 10% FCS.
The response of the cells to the antagonists was evaluated using phase contrast microscopy at room temperature. […] Cells were identified as relaxed when the tension wrinkles associated with them diminished in size, and completely relaxed when the wrinkles disappeared. Conversely, a pericyte contracted when there was an increase in the number and length of the wrinkles associated with the pericyte. During each experiment, an image of the pericytes was captured (videocamera and framegrabber) by the computer every minute. The wrinkles were analysed after the experiment from these captured images.
In each of the experiments, the length of each clearly discerned wrinkle associated with the cell was measured 3 times, and the average of the lengths was tabulated. The two ends of a wrinkle were determined by the contrast difference from the background on the picture. The contrast settings on the computer, videocamera or framegrabber were set at the commencement of an experiment and then not changed during the course of an experiment. Similarly, the focus of the microscope was set at the commencement of the experiment and then not changed during the course of an experiment. The depth (level) of solution in the bath was also kept constant, by aspirating and injecting each new solution at the same rate. Thus the only change in the image of the wrinkle (contrast, length) was due to the tension induced in the silicone substrate by the pericyte. The wrinkles during each experimental condition were counted from the photographs with help of a Zeiss videoplan.
The contractile state of the pericyte was quantified by counting the number of wrinkles (N) and the length of each wrinkle (l) in the thin shin sheet of silicone. From these observations an index of contractility (Ci) was developed from […]. An experiment to determine the effect of vasoactive agents was conducted by first quantifying Ci with the pericyte in physiological buffer (“control”). […] As a further control, incubations with buffer alone for the complete duration of exposure to each vasoactive agent were performed in conjunction with each experiment.
For this purpose cells were grown on silicone rubber. On the day of experiment the cells were rinsed with HEPES-buffered solution for 20 min at room temperature. Then the pericytes were exposed to norepinephrine (N5785, Sigma, USA) at different concentrations (10^−6M, 10^−5M, 10^−4 M) by a rapid exchange of the entire solution. The pericytes were exposed to each new drug concentration for a total of 10 minutes, with an image of the pericytes taken every 1 min.

Nc1ncnc2c1ncn2[C@@H]1O[C@@H]2COP(O)(=S)O[C@H]2[C@H]1O (single isomer, unassigned) [Rp-cAMPS, adenosine 3′,5′-cyclic monophosphothioate, Rp-isomer] gave an EC50 ([1]; 10^−8 M PACAP, 10, 30, 100 μM added sequentially, 10 minutes each, FIG. 6, read-out: EC50 of inhibition of the relaxing effect of PACAP) of 26 µM.

O=S(=O)(NCCNCC=Cc1ccc(Br)cc1)c1cccc2cnccc12 [H-89, N-(2-[p-bromocinnamylamino]-ethyl)-5-isoquinolinesulfonamid-e] was tested, and the “effect on the relaxing effect of PACAP” value ([1]; 10^−8 M PACAP, inhibitor at 0.3 μM) was “inhibited the relaxing effect”.

For O=C(O)c1ccccc1Nc1ccccc1 [N-phenylanthranilic acid], the “effect on contractile state of retinal pericytes (in words)” value (“effect on contractile state” for short) (retinal pericytes) was “can influence the contractile state of retinal pericytes”.

With NC[C@H](O)c1ccc(O)c(O)c1 [NE, norepinephrine] the “effect on contractile state” value (retinal pericytes) was “contracting in a dose-dependent manner”, the EC50 (retinal pericytes; read-out: EC50 of pericyte contraction of silicone substrate) was 8 µM and the “concentration causing contraction of pericytes” value (retinal pericytes; retinal pericytes, FIG. 3) was “greater than 10^−6 M”. The “concentration giving maximum enhancement of contractile state of the pericytes” value (retinal pericytes; retinal pericytes, FIG. 3) was 10^−4 M.

C[C@@H](C(=O)O)c1ccc(-c2ccccc2)c(F)c1 [R-flurbiprofen, flurbiprofen] was tested, and the “effect on contractile state” value (retinal pericytes) was “can influence the contractile state of retinal pericytes”.

COc1ccc2c(c1)CC[C@@H]1[C@@H]2CC[C@]2(C)[C@@H](NCCCCCCN3C(=O)C=CC3=O)CC[C@@H]12 [U73122, 1-[6-([(17β)-3-Methoxyestra-1,3,5(10)-trien-17-yl]amino)hexyl]-1H-py-rrole-2,2-dione] was tested, and the “effect on PACAP-induced relaxation of pericytes” value ([1]; inhibitor at 10 μM) was “antagonist of the PACAP-induced relaxation of pericytes”.

Work on CC[C@H](C)[C@H](NC(=O)[C@H](CO)NC(=O)[C@H](CC(N)=O)NC(=O)[C@H](CC(C)C)NC(=O)[C@H](Cc1ccc(O)cc1)NC(=O)[C@H](CCCCN)NC(=O)[C@H](CCCCN)NC(=O)[C@@H](NC(=O)[C@H](C)NC(=O)[C@H](CCSC)NC(=O)[C@H](CCC(N)=O)NC(=O)[C@H](CCCCN)NC(=O)[C@H](CCCNC(=N)N)NC(=O)[C@H](CC(C)C)NC(=O)[C@H](CCCNC(=N)N)NC(=O)[C@@H](NC(=O)[C@H](Cc1ccc(O)cc1)NC(=O)[C@H](CC(N)=O)NC(=O)[C@H](CC(=O)O)NC(=O)[C@@H](NC(=O)[C@H](Cc1ccccc1)NC(=O)[C@@H](NC(=O)[C@H](C)NC(=O)[C@H](CC(=O)O)NC(=O)[C@H](CO)NC(=O)[C@@H](N)Cc1c[nH]cn1)C(C)C)[C@@H](C)O)[C@@H](C)O)C(C)C)C(=O)N[C@@H](CC(C)C)C(=O)N[C@@H](CC(N)=O)C(N)=O [VIP, vasoactive intestinal polypeptide] yielded an EC50 (retinal pericytes; read-out: EC50 concentration, effect on contractility of pericytes (relaxation), contractility index below 100 = relaxed, data averaged from cells, FIGS. 4, 5) of 0.048 µM.

In the case of O=C(O)c1ccccc1Nc1cccc(C(F)(F)F)c1 [flufenamic acid], the “effect on contractile state” value (retinal pericytes) is reported as “can influence the contractile state of retinal pericytes”.
